Test system: male Sprague Dawley rats
Assay: Cardiotoxicity Assay (heart-to-body weight ratio)
Assay type: in vivo, rat
Conditions: 250 μg per kg subcutaneously once daily for 28 days, hearts weighed day 30
Text: The cardiotoxicity assay measures the potential of a test compound to adversely affect the cardiovascular system. As thyroid hormone (T3) damages the cardiovascular system, the heart enlarges. See, e.g., Gomberg-Maitland et al., “Thyroid hormone and Cardiovascular Disease”, American Heart Journal, Vol. 135(2), pp. 187-196 (1998); Klein and Ojamaa, “Thyroid Hormone and the Cardiovascular System”, Current Opinion in Endocrinology and Diabetes, Vol. 4, pp.341-346 (1997); and Klemperer et al., “Thyroid Hormone Therapy and Cardiovascular Disease”, Progress in Cardiovascular Diseases, Vol. 37 (4), pp. 329-336 (1996). This increases the weight of the heart relative to whole body weight. The cardiotoxicity assay herein below is used to test compounds for potentially adverse cardiac effects by measuring their effect on the heart-to-body weight ratio.
Two groups each of six male Sprague Dawley rats (Harlan Sprague Dawley, Inc., Indianapolis, Ind.) (each weighing from approximately 220 grams to 235 grams) are utilized. The first group is a vehicle control group and the second group is a test compound group. The length of the assay is 30 days, with treatment of vehicle or test compound in vehicle daily for 28 of those days as described below.
Prior to initiation of the assay, each rat is allowed to acclimate to standard environmental conditions for 5 days. […]

Q: `N[C@@H](Cc1cc(I)c(Oc2cc(I)c(O)c(I)c2)c(I)c1)C(=O)O` [T4, thyroxine] was tested. Which “cardiac-sparing (index C = RT/RV, heart/body ratio of test compound group over vehicle control group)” value did it give?
A: The value was “not cardiac-sparing”.
